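Assay format: 96-well plates, 48-hour exposure. GI50 is the concentration that inhibits growth by half. The concentration for full growth arrest is given as TGI.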
Tests used:
Assay in all cases: NCI tumour cell line growth inhibition, 48 h
SNB-19 CNS = tested on: SNB-19 CNS
SK-MEL-5 melanoma = tested on: SK-MEL-5 melanoma
PC-3 prostate = tested on: PC-3 prostate
MDA-MB-231 breast = tested on: MDA-MB-231 breast
NCI-H226 lung = tested on: NCI-H226 lung
UACC-62 melanoma = tested on: UACC-62 melanoma
NCI-H522 lung = tested on: NCI-H522 lung
LOX IMVI melanoma = tested on: LOX IMVI melanoma
SW-620 colon = tested on: SW-620 colon
SF-539 CNS = tested on: SF-539 CNS

| SMILES | GI50 (SNB-19 CNS) [µM] | TGI (SNB-19 CNS) [µM] | GI50 (SK-MEL-5 melanoma) [µM] | TGI (SK-MEL-5 melanoma) [µM] | GI50 (PC-3 prostate) [µM] | TGI (PC-3 prostate) [µM] | GI50 (MDA-MB-231 breast) [µM] | TGI (MDA-MB-231 breast) [µM] | GI50 (NCI-H226 lung) [µM] | TGI (NCI-H226 lung) [µM] | GI50 (UACC-62 melanoma) [µM] | TGI (UACC-62 melanoma) [µM] | GI50 (NCI-H522 lung) [µM] | TGI (NCI-H522 lung) [µM] | GI50 (LOX IMVI melanoma) [µM] | TGI (LOX IMVI melanoma) [µM] | GI50 (SW-620 colon) [µM] | TGI (SW-620 colon) [µM] | GI50 (SF-539 CNS) [µM] | TGI (SF-539 CNS) [µM] |
| --- | --- | --- | --- | --- | --- | --- | --- | --- | --- | --- | --- | --- | --- | --- | --- | --- | --- | --- | --- | --- |
| COC(=O)C1CCCN1C(=O)[C@@H]1CCCN1C(=O)[C@H](Cc1c[nH]c2ccccc12)NC(=S)Nc1cc(C(F)(F)F)cc(C(F)(F)F)c1 (stereo not given in full) | 2.7 | 12.1 | 2.63 | 7.61 | 1.91 | 5.32 | 1.62 | 3.4 | 2.26 | 8.01 | 1.7 | 4.08 | 2.15 | 4.99 | 1.91 | 4.28 | 3.68 | 12.6 | 2.43 | 5.85 |
| Cc1cc(=O)[nH]c2cc3c(c4c(n3Cc3ccc(Cl)cc3Cl)CC(C)(C)CC4=O)c(O)c12 | 55.8 | > 100 | 16.3 | 31.8 | > 100 | > 100 | > 100 | > 100 | > 100 | > 100 | > 100 | > 100 | > 100 | > 100 | > 100 | > 100 | > 100 | > 100 | > 100 | > 100 |
| Nc1nc(N)c2c(n1)NC(c1ccc(F)cc1)C1CCc3ccccc3C1=N2 (stereo not given) | 12 | 24.8 | 0.609 | 2.21 | 2.03 | 9.31 | 5.8 | 19.8 | 5.97 | 24.5 | 3.76 | 17.7 | 5.66 | 21.2 | 3.98 | 16.1 | 4.87 | 17.4 | 10.5 | 22.4 |
| O=C(c1ccccc1)C(Br)C(Br)c1cccc([N+](=O)[O-])c1 (stereo not given) | 3.32 | 12.9 | 2.89 | 10.8 | 2.26 | 6.84 | 1.96 | 3.79 | 1.74 | 3.46 | 1.79 | 3.56 | 1.11 | 2.57 | 1.36 | 2.77 | 0.342 | 1.49 | 2.32 | 5.05 |
| Cc1cc(NCc2cc(Nc3ccnc4cc(Cl)ccc34)ccc2F)nc(N2CCN(C)CC2)n1 | 2.72 | 12.9 | 1.69 | 3.07 | 1.92 | 7.97 | 1.64 | 3.74 | 2.22 | 5.5 | 1.91 | 3.81 | 2.22 | 4.79 | 1.26 | 2.65 | 1.63 | 4.23 | 1.79 | 3.37 |
| C=C(C)[C@@H]1CC[C@]2(C)[C@H](CC=C3[C@@H]4[C@@H](C)[C@H](C)CC[C@]4(C(N)=O)CC[C@]32C)[C@@]1(C)CCC#N | 6.31 | > 100 | 2.71 | 8.16 | 2.58 | 21 | 8.75 | 42.8 | 5.09 | 27 | 5.69 | 29 | 3.56 | 50.9 | 7.06 | 20.1 | 4.5 | > 100 | 4.79 | 16.6 |
